# In patent publication US4330527A, “Wound treatment agent” (priority 1979, dated 1982):
# “Also recorded” adds a separate entry of the source.
# B1: Albumin: egg albumin as the control (protein, UniProt P01012 2-386, looked up)
# Ovalbumin: GSIGAASMEFCFDVFKELKVHHANENIFYCPIAIMSALAMVYLGAKDSTRTQINKVVRFDKLPGFGDSIEAQCGTSVNVHSSLRDILNQITKPNDVYSFSLASRLYAEERYPILPEYLQCVKELYRGGLEPINFQTAADQARELINSWVESQTNGIIRNVLQPSSVDSQTAMVLVNAIVFKGLWEKAFKDEDTQAMPFRVTEQESKPVQMMYQIGLFRVASMASEKMKILELPFASGTMSMLVLLPDEVSGLEQLESIINFEKLTEWTSSNVMEERKIKVYLPRMKMEEKYNLTSVLMAMGITDVFSSSANLSGISSAESLKISQAVHAAHAEINEAGREVVGSAEAGVDAASVSEEFRADHPFLFCIKHIATNAVLFFGRCVSP
# Legend:
# [1] = test system: NPT; assay type: biochemical, Clostridium perfringens ATCC 21510
# [2] = test system: epidermis; settings: literature; cited from earlier work
# [3] = test system: granulation tissue in P.V.H.-sponge; parameters: species or system rats (Wistar strain, male); settings: rat, in vivo
# [4] = test system: epidermis (dorsal skin); experiment: Experiment 9: epidermization effect on dermatome-peeled dorsal skin; assay type: in vivo, rabbit; settings: further examination
# [5] = test system: NPT; assay type: biochemical, Clostridium perfringens ATCC 21510; remark: listed apart in the source
# [6] = test system: 5'-nucleotidase; experiment: Effects of metal ions and other chemical agents on nucleotidase activity; assay type: biochemical
# [7] = test system: collagen in P.V.H.-sponge; experiment: Experiment 6: weight of collagen (hydroxyproline) in the buried sponge; assay type: in vivo, rats; settings: for Hydroxyproline: n = 8; for Hydroxyproline, % of control: control = 100%
molecule,measurement,setting,value
Cc1cn([C@H]2C[C@H](O)[C@@H](CO)O2)c(=O)[nH]c1=O [thymidine],action as phosphate acceptor,[1],phosphate acceptor
CN(CC(=O)O)C(=N)NP(=O)(O)O [creatine phosphate],action as phosphate donor,[1],not observed
O=c1ccn([C@H]2C[C@H](O)[C@@H](CO)O2)c(=O)[nH]1 [deoxyuridine],action as phosphate acceptor,[1],phosphate acceptor
Nc1ccn([C@H]2C[C@H](O)[C@@H](CO)O2)c(=O)n1 [deoxycytidine],action as phosphate acceptor,[1],phosphate acceptor
3-phosphoglycerophosphate,action as phosphate donor,[1],not observed
vitamin A,effect on skin tissue / DNA synthesis in epidermis,[2],stimulates synthesis of DNA in the epidermis; also recorded: affect the growth and differentiation of the skin tissue
O=P(O)(O)OCC(O)CO (stereo not drawn) [α-glycerophosphate],action as phosphate donor,[1],not observed
Nc1ncnc2c1ncn2[C@H]1C[C@H](O)[C@@H](COP(=O)(O)OP(=O)(O)OP(=O)(O)O)O1 [deoxyadenosine triphosphate],action as phosphate donor,[1],not observed
O=P(O)(O)OC[C@H]1OC(O)[C@H](O)[C@@H](O)[C@@H]1O (some centres unmarked) [glucose-6-phosphate],action as phosphate donor,[1],not observed
CC(=O)OCC(=O)[C@@]1(O)CC[C@H]2[C@@H]3CCC4=CC(=O)C=C[C@]4(C)[C@H]3[C@@H](O)C[C@@]21C [Prednisolone acetate],(1) Wet weight,[3],225 ± 58.9 mg
same,(1)-(2) Liquid content,[3],167.4 ± 52.2 mg
same,"(2) - sponge weight, Solid content",[3],22.6 ± 9.6 mg
same,(2) Dry weight,[3],57.8 ± 9.9 mg
same,"Dry weight, %",[3],91.2%
same,"Liquid content, %",[3],68.4%
same,"Solid content, %",[3],80.7%
same,"Wet weight, %",[3],73.0%
same,effect on weights / newly grown granulation tissue (in words),[3],"the dry weight, wet weight, quantity of exudate and weight of newly grown granulation tissue all fall below those with the control"
O=c1ccn([C@@H]2O[C@H](CO)[C@@H](O)[C@H]2O)c(=O)[nH]1 [uridine],action as phosphate acceptor,[1],lowest activity as the phosphate acceptor
Nc1ncnc2c1ncn2[C@@H]1O[C@H](COP(=O)(O)OP(=O)(O)OP(=O)(O)O)[C@@H](O)[C@H]1O [adenosine triphosphate],action as phosphate donor,[1],not observed
Nc1ccn([C@@H]2O[C@H](CO)[C@@H](O)[C@H]2O)c(=O)n1 [cytidine],action as phosphate acceptor,[1],phosphate acceptor
[O]=[Zn] [zinc oxide],capability of epidermization (in words),[4],synergistic effect with GF-70 to stimulate the epidermization
O=C(O)c1cc[c]([Hg][Cl])cc1 [p-chloromercuribenzoic acid],effect on NPT activity,[5],neither of them are inhibited
same,effect on nucleotidase activity,[6],neither of them are inhibited
B1,weight of collagen (in words),"[7]; 4th and 7th days, vs control",no significant difference
same,Hydroxyproline,[7]; 4 days after burying,132.3 ± 18.0 μg/sponge
same,"Hydroxyproline, % of control",[7]; 4 days after burying,105%
same,Hydroxyproline,[7]; 7 days after burying,331.7 ± 18.8 μg/sponge
same,"Hydroxyproline, % of control",[7]; 7 days after burying,146%
